Experimental data reported in ChEMBL document CHEMBL1932919, “Dirlotapide as a model substrate to refine structure-based drug design strategies on CYP3A4-catalyzed metabolism” (Bioorg Med Chem Lett, 2012).

Tested on: Liver microsomes
Experiment: Drug metabolism in human liver microsomes at 20 mM
Type: ADME, Microsome
Details: 20000 µM; call rule not given here

In the case of `CN(Cc1ccccc1)C(=O)[C@@H](NC(=O)c1cc2cc(NC(=O)c3ccccc3-c3ccc(C(F)(F)F)cc3)ccc2n1C)c1ccccc1` [DIRLOTAPIDE], the Drug metabolism is reported as “Active”.
